# Data published in ChEMBL document CHEMBL3612012, “Identification of orally-bioavailable antagonists of the TRPV4 ion-channel” (Bioorg Med Chem Lett, 2015).
# Key:
# [1] = molecular target: Type-1 angiotensin II receptor (Homo sapiens) (UniProt P30556); assay: Binding affinity to human AT1 receptor assessed as inhibition of control specific binding at 10 uM
# [2] = molecular target: D(2) dopamine receptor (Homo sapiens) (UniProt P14416); assay: Binding affinity to human D2S receptor assessed as inhibition of control specific binding at 10 uM
# [3] = Bioavailability in Wistar rat at 32.50 mg/kg, ip; assay type: ADME, organism-based; details: in vivo, 32.5 mg/kg
# [4] = molecular target: Galanin receptor type 2 (Homo sapiens) (UniProt O43603); assay: Binding affinity to human GAL2 receptor assessed as inhibition of control specific binding at 10 uM
# [5] = AUC (infinity) in Wistar rat at 32.50 mg/kg, ip; assay type: ADME, organism-based; design: dose 32.5 mg/kg, route intraperitoneal, time infinity; details: in vivo, 32.5 mg/kg
# [6] = molecular target: Vasopressin V1a receptor (Homo sapiens) (UniProt P37288); assay: Binding affinity to human V1a receptor assessed as inhibition of control specific binding at 10 uM
# [7] = AUC (infinity) in Wistar rat at 1.40 mg/kg, iv; assay type: ADME, organism-based; design: dose 1.4 mg/kg, time infinity, route intravenous; details: in vivo, 1.4 mg/kg
# [8] = molecular target: Sodium-dependent dopamine transporter (Homo sapiens) (UniProt Q01959); assay: Binding affinity to human DA transporter assessed as inhibition of control specific binding at 10 uM
# [9] = molecular target: Transient receptor potential cation channel subfamily V member 4 (Mus musculus, UniProt Q9EPK8); assay: Antagonist activity at mouse TRPV4 receptor expressed in HEK293 cells assessed as inhibition of EC80 of 4alpha-PDD-stimulated calcium flux after 10 mins; assay type: cell-based
# [10] = molecular target: Beta-1 adrenergic receptor (Homo sapiens) (UniProt P08588); assay: Binding affinity to human beta1 adrenergic receptor assessed as inhibition of control specific binding at 10 uM
# [11] = molecular target: Muscarinic acetylcholine receptor M3 (Homo sapiens) (UniProt P20309); assay: Binding affinity to human M3 receptor assessed as inhibition of control specific binding at 10 uM
# [12] = molecular target: Adenosine receptor A3 (Homo sapiens) (UniProt P0DMS8); assay: Binding affinity to human adenosine A3 receptor assessed as inhibition of control specific binding at 10 uM
# [13] = molecular target: Neuromedin-K receptor (Homo sapiens) (UniProt P29371); assay: Binding affinity to human NK3 receptor assessed as inhibition of control specific binding at 10 uM
# [14] = molecular target: 5-hydroxytryptamine receptor 1A (Homo sapiens) (UniProt P08908); assay: Binding affinity to human 5-HT1A receptor assessed as inhibition of control specific binding at 10 uM
# [15] = molecular target: Adrenergic receptor alpha-2 (Homo sapiens) (UniProt P08913+P18825+P18089); assay: Binding affinity to non-selective alpha2 adrenergic receptor (unknown origin) assessed as inhibition of control specific binding at 10 uM; assay type: protein assay
# [16] = molecular target: Transient receptor potential cation channel subfamily V member 4 (Rattus norvegicus, UniProt Q9ERZ8); assay: Antagonist activity at rat TRPV4 receptor expressed in HEK293 cells assessed as inhibition of EC80 of 4alpha-PDD-stimulated calcium flux after 10 mins; assay type: cell-based
# [17] = Cmax in Wistar rat at 32.50 mg/kg, ip; assay type: ADME, organism-based; design: dose 32.5 mg/kg, route intraperitoneal; details: in vivo, 32.5 mg/kg
# [18] = molecular target: Substance-K receptor (Homo sapiens) (UniProt P21452); assay: Binding affinity to human NK2 receptor assessed as inhibition of control specific binding at 10 uM
# [19] = Oral bioavailability in Wistar rat at 29.73 mg/kg; assay type: ADME, organism-based; details: in vivo
# [20] = molecular target: 5-hydroxytryptamine receptor 1B (Homo sapiens) (UniProt P28222); assay: Binding affinity to human 5-HT1B receptor assessed as inhibition of control specific binding at 10 uM
# [21] = molecular target: Muscarinic acetylcholine receptor M2 (Homo sapiens) (UniProt P08172); assay: Binding affinity to human M2 receptor assessed as inhibition of control specific binding at 10 uM
# [22] = Cmax in Wistar rat at 29.73 mg/kg, po; assay type: ADME, organism-based; design: dose 29.73 mg/kg, route oral; details: in vivo
# [23] = molecular target: Beta-2 adrenergic receptor (Homo sapiens) (UniProt P07550); assay: Binding affinity to human beta2 adrenergic receptor assessed as inhibition of control specific binding at 10 uM
# [24] = molecular target: GABA-A receptor; agonist GABA site (Homo sapiens) (UniProt P14867+P47870+P28472+P48169+P34903+P18505+P47869+P31644+Q16445); assay: Binding affinity to GABAA receptor (unknown origin) assessed as inhibition of control specific binding at 10 uM; assay type: protein-complex assay
# [25] = molecular target: 5-hydroxytryptamine receptor 2A (Homo sapiens) (UniProt P28223); assay: Binding affinity to human 5-HT2A receptor assessed as inhibition of control specific binding at 10 uM
# [26] = molecular target: Histamine H2 receptor (Homo sapiens) (UniProt P25021); assay: Binding affinity to human H2 receptor assessed as inhibition of control specific binding at 10 uM
# [27] = molecular target: Transient receptor potential cation channel subfamily V member 1 (Homo sapiens, UniProt Q8NER1); assay: Antagonist activity at human TRPV1 receptor expressed in HEK293 cells assessed as inhibition of capsaicin-stimulated calcium flux after 10 mins; assay type: cell-based
# [28] = molecular target: Endothelin-1 receptor (Homo sapiens) (UniProt P25101); assay: Binding affinity to human ETA receptor assessed as inhibition of control specific binding at 10 uM
# [29] = Half life in Wistar rat at 1.40 mg/kg, iv; assay type: ADME, organism-based; details: in vivo, 1.4 mg/kg
# [30] = molecular target: Cannabinoid receptor 1 (Homo sapiens) (UniProt P21554); assay: Binding affinity to human CB1 receptor assessed as inhibition of control specific binding at 10 uM
# [31] = Volume of distribution at steady state in Wistar rat at 1.40 mg/kg, iv; assay type: ADME, organism-based; details: in vivo, 1.4 mg/kg, read-out: Vdss
# [32] = molecular target: Delta-type opioid receptor (Homo sapiens) (UniProt P41143); assay: Binding affinity to human detla2 opioid receptor assessed as inhibition of control specific binding at 10 uM
# [33] = Solubility of the compound at pH 7.4; assay type: physicochemical; details: buffer
# [34] = molecular target: potassium channel (voltage-gated potassium channel family) (Homo sapiens, UniProt O43525+O43526+O95259+P16389+P17658+P22001+P22459+P22460+P48547+P51787+P56696+Q03721+Q09470+Q12809+Q14003+Q14721+Q16322+Q6PIU1+Q8NCM2+Q8TAE7+Q8TDN1+Q8TDN2+Q92953+Q96KK3+Q96L42+Q96PR1+Q96RP8+Q9BQ31+Q9H252+Q9H3M0+Q9NR82+Q9NS40+Q9NSA2+Q9NZV8+Q9UIX4+Q9UJ96+Q9UK17+Q9ULD8+Q9ULS6+Q9UQ05); assay: Binding affinity to potassium channel (unknown origin) assessed as inhibition of control specific binding at 10 uM; assay type: protein assay
# [35] = molecular target: Sodium-dependent serotonin transporter (Homo sapiens) (UniProt P31645); assay: Binding affinity to human 5-HT transporter assessed as inhibition of control specific binding at 10 uM
# [36] = organism: Homo sapiens; assay: Binding affinity to verapamil site of calcium channel L (unknown origin) assessed as inhibition of control specific binding at 10 uM
# Cannabinoid receptor 1 (Homo sapiens), sequence (P21554 whole entry): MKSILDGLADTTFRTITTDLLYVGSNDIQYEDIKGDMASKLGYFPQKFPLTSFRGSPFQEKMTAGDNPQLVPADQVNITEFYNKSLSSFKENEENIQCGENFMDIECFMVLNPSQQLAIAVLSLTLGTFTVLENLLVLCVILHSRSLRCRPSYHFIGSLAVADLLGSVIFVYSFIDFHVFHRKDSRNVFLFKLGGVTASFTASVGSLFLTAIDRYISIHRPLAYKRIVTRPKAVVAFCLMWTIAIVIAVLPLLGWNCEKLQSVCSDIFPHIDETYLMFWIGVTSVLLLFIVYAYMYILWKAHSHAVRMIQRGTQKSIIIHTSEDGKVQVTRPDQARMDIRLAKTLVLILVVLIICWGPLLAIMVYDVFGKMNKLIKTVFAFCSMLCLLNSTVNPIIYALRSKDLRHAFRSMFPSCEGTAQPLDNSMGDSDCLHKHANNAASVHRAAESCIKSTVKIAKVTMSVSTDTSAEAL
# Delta-type opioid receptor (Homo sapiens), sequence (P41143 whole entry): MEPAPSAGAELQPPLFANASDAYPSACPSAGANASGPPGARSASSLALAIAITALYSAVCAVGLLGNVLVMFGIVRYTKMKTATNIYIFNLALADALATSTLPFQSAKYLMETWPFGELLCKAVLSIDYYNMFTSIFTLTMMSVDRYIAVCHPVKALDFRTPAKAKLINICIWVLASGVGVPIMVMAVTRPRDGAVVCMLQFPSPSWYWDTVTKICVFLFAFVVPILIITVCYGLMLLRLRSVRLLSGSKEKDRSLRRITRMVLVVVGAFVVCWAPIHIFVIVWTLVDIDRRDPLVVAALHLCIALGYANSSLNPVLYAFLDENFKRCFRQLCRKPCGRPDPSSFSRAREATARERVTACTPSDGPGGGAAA
# Sodium-dependent serotonin transporter (Homo sapiens), sequence (P31645 whole entry, looked up): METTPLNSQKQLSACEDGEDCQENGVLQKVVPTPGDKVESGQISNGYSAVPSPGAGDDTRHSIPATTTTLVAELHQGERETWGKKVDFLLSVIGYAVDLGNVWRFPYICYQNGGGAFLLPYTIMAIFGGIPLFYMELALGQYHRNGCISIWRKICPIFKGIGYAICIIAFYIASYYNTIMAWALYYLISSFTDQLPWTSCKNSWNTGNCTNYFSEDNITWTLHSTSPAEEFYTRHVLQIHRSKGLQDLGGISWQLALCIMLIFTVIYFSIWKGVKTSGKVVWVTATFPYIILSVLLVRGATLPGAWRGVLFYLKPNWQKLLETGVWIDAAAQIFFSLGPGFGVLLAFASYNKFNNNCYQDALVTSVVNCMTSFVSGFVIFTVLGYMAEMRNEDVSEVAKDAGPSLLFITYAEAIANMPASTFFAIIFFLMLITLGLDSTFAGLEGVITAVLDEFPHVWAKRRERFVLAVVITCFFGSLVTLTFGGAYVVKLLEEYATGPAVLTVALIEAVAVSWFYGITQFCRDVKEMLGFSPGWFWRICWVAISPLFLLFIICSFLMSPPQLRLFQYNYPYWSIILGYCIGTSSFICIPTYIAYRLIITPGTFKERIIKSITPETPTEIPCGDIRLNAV
# Transient receptor potential cation channel subfamily V member 4 (Rattus norvegicus, UniProt Q9ERZ8), sequence (Q9ERZ8 whole entry): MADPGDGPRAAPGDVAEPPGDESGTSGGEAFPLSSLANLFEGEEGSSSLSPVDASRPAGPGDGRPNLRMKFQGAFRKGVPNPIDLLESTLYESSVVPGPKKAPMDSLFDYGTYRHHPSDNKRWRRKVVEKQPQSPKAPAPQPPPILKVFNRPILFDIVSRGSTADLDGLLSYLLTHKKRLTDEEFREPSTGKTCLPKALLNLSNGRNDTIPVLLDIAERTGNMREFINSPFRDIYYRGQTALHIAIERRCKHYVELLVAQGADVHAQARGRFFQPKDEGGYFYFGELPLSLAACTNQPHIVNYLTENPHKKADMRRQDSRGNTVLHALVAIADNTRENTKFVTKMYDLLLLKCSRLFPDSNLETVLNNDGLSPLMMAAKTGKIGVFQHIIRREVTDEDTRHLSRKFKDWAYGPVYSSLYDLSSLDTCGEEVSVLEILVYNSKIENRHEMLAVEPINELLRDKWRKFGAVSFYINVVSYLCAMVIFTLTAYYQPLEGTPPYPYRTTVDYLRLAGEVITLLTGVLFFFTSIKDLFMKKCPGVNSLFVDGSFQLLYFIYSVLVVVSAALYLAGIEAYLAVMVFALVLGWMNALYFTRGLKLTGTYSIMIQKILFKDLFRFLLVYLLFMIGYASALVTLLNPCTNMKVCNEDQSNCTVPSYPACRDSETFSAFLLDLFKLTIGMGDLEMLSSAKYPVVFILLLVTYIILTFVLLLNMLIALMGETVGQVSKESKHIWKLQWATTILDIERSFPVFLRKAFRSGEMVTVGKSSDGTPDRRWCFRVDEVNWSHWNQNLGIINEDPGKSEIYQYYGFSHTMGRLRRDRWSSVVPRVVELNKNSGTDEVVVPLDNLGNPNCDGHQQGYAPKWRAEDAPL
# Transient receptor potential cation channel subfamily V member 4 (Mus musculus, UniProt Q9EPK8), sequence (Q9EPK8 whole entry): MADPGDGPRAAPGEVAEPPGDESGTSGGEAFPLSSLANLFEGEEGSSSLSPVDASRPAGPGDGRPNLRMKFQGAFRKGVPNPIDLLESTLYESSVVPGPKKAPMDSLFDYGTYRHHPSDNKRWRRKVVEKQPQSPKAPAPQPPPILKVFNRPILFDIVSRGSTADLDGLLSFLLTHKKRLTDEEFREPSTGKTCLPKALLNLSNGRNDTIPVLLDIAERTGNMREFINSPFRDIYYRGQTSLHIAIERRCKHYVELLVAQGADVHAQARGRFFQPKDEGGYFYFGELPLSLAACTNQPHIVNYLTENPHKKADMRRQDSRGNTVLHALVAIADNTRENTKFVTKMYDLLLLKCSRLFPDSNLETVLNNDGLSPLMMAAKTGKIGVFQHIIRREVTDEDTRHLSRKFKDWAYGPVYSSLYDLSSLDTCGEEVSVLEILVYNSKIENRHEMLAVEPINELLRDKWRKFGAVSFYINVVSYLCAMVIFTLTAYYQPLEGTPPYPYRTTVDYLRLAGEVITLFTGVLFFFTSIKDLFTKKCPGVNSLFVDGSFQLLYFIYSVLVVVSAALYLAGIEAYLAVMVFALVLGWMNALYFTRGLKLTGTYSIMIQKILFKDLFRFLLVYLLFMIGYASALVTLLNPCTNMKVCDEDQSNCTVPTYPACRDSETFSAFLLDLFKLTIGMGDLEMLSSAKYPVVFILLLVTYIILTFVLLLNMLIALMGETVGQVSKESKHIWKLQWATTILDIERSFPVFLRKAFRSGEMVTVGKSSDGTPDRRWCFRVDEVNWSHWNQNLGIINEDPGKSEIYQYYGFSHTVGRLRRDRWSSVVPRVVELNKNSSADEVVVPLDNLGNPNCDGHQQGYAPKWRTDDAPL
# D(2) dopamine receptor (Homo sapiens), sequence (P14416 whole entry): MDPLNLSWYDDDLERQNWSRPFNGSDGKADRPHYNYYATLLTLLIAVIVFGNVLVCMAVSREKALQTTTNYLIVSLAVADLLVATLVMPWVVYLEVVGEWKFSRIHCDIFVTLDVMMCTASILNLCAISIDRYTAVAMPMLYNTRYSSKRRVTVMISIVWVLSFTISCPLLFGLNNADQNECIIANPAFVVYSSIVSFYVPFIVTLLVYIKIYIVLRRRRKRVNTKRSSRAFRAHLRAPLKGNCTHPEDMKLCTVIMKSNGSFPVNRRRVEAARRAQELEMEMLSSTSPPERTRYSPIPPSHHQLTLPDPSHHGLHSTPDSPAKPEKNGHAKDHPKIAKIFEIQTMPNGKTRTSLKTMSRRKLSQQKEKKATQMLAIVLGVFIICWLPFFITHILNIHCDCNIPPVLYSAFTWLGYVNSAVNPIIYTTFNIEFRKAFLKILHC
# 5-hydroxytryptamine receptor 1A (Homo sapiens), sequence (P08908 whole entry): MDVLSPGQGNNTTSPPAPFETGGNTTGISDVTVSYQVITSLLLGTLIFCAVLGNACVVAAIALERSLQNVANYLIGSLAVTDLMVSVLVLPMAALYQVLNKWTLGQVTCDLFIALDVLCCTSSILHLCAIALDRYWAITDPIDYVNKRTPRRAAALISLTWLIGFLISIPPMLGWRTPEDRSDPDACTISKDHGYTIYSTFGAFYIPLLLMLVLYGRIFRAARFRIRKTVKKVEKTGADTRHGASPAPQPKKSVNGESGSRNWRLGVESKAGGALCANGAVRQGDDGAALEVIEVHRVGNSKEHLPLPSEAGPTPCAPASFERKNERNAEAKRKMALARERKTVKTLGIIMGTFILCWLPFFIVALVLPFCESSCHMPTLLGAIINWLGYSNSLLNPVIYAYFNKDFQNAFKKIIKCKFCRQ
# Substance-K receptor (Homo sapiens), sequence (P21452 whole entry): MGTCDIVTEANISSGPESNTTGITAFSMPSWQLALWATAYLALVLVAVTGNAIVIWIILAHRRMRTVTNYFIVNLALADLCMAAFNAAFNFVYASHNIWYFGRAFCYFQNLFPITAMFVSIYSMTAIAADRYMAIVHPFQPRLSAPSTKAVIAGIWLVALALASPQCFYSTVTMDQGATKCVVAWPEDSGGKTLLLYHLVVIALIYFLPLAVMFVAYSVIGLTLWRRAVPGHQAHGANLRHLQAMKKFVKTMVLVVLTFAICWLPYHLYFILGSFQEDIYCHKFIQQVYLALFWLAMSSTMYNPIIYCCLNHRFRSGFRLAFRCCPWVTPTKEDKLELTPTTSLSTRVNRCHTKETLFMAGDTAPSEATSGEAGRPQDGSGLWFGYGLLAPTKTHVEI
# Beta-1 adrenergic receptor (Homo sapiens), sequence (P08588 whole entry, looked up): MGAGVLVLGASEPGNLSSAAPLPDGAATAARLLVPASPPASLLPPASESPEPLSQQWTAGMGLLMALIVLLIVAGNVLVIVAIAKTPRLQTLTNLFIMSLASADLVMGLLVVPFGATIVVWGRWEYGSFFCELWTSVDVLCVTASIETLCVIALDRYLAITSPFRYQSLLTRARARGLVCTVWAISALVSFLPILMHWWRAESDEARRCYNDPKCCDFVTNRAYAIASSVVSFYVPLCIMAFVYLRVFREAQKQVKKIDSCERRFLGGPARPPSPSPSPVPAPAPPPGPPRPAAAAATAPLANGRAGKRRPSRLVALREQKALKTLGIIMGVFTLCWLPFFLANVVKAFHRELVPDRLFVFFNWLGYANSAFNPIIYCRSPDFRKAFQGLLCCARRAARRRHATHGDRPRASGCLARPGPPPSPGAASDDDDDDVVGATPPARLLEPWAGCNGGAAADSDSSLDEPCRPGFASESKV
structure (smiles),measurement,setting,value
CC(C)N1CCN(S(=O)(=O)c2ccc(NC(=O)c3ccc(C(F)(F)F)cc3[N+](=O)[O-])cc2)CC1,inhibition,[1],-6%
same,inhibition,[2],2%
same,bioavailability,[3],75%
same,inhibition,[4],4%
same,AUC(0-inf),[5],16500 ng·h/mL
same,inhibition,[6],1%
same,AUC(0-inf),[7],1010 ng·h/mL
same,inhibition,[8],10%
same,IC50,[9],320 nM
same,inhibition,[10],4%
same,inhibition,[11],21%
same,inhibition,[12],10%
same,inhibition,[13],2%
same,inhibition,[14],-4%
same,inhibition,[15],-1%
same,IC50,[16],660 nM
same,Cmax,[17],10600 ng/mL
same,inhibition,[18],15%
same,bioavailability,[19],46.8%
same,inhibition,[20],-2%
same,inhibition,[21],6%
same,Cmax,[22],3820 ng/mL
same,inhibition,[23],1%
same,inhibition,[24],3%
same,inhibition,[25],28%
same,inhibition,[26],-4%
same,IC50,[27],> 10000 nM
same,inhibition,[28],-4%
same,half-life,[29],42.6 min
same,inhibition,[30],3%
same,Vd,[31],1.44 L/kg
same,inhibition,[32],6%
same,solubility,[33],45.5 µM
same,inhibition at 10 µM,[34],-25%
same,inhibition,[35],6%
same,inhibition,[36],7%
